Consider 29 compounds from patent US9018135B2, “Pesticidal compositions” (Syngenta Participations AG, priority 2010, dated 2015).

What is called melting point is the temperature of the solid-liquid transition.

Like-named read-outs stand apart in the source and are kept apart here.

Data set [1] has as its system Nilaparvata lugens (brown plant hopper, BPH). The experiment in a line: Activity against Nilaparvata lugens (brown plant hopper, BPH) on sprayed rice plants, % mortality (Abbott). In kind it is in vivo. The conditions noted are these: 168 h. As to the method: Eight replicates (pots with rice plants) were sprayed with respective test solutions. Test solutions contained the formulated test compound and the PGR Moddus® at different ratios. 4 pots were infested with plant hopper nymphs right after application. 7d after application BPH mortality and phytotoxicity were evaluated.

For data set [2], the system named is Rhopalosiphum padi (cereal aphid). The experiment in a line: Activity against Rhopalosiphum padi (cereal aphid) on sprayed wheat plants, % mortality (Abbott). An excerpt:
Activity Against Rhopalosiphum padi (Cereal Aphid) and Crop Safety
The experiment was divided into two parts, one half of the plants was used for the aphid bioassay the other half was not infested with aphids and kept for plant growth evaluation. One replicate consisted of 4 wheat plants per pot. 5 replicates were infested with a mixed population of cereal aphids 6 days after seeding. 9 days after seeding all wheat plants (10 replicates) were sprayed with respective test solutions. Test solutions contained the formulated test compound (25 ppm), the adjuvant Mero (0.1% v/v), and the plant growth regulator (PGR) CCC (chlormequat-chloride, Cyclocel®) or trinexapac ethyl (Moddus®). 6 and 17d after application aphid mortality and phytotoxicity were evaluated. Efficacy was calculated with the aid of Abbott's formula. Assessment on phytotoxicity was done by counting the number of leaves bent down due to necrosis per pot. Additionally the average plant height per replicate was measured.

As for `CCOC(=O)OC1=C(c2cc(C)ccc2C)C(=O)N(C)C12CCN(OC)CC2`, the melting point fell in the range of 96 to 110 °C.

Regarding `CCOC(=O)OC1=C(c2cc(C)c(C)cc2Br)C(=O)N(C)C12CCN(OC)CC2`, the melting point was 158 to 159 °C.

Regarding `CCOC(=O)OC1=C(c2cc(C)c(C)cc2Cl)C(=O)N(C)C12CCN(OC)CC2`, the melting point was 149 to 150 °C.

Compound `CCOC(=O)OC1=C(c2c(C)cc(C)cc2C)C(=O)N(CC)C12CCN(OC)CC2` displayed a melting point of 101 to 103 °C.

`CCOC(=O)OC1=C(c2c(C)cc(Cl)cc2C)C(=O)N(OC)C12CCN(OC)CC2` had a melting point of 122 to 125 °C.

Take `COCON1C(=O)C(c2cc(C)ccc2C)=C(OC)C12CCN(OC)CC2`: the melting point is 91 to 93 °C.

As to `COCON1C(=O)C(c2cc(C)ccc2C)=C(OC(=O)CC(C)(C)C)C12CCN(OC)CC2`, the melting point is 93 to 95 °C.

`CCOC(=O)OC1=C(c2c(F)ccc(C)c2Cl)C(=O)N(OCOC)C12CCN(OC)CC2` yielded a melting point of 116 to 119 °C.

Consider `CON1CCC2(CC1)C(O)=C(c1cc(C)ccc1C)C(=O)N2C`, for which the melting point fell in the range of 121 to 123 °C.

In turn, `CCN1C(=O)C(c2c(C)cc(C)cc2C)=C(O)C12CCN(OC)CC2` showed a melting point of 218 to 221 °C.

Compound `CON1CCC2(CC1)C(O)=C(c1cc(C)c(C)cc1Br)C(=O)N2C` returned a melting point of 191 to 193 °C.

`CON1CCC2(CC1)C(O)=C(c1cc(C)c(C)cc1C)C(=O)N2C`: the melting point was in the range of 183 to 186 °C.

Regarding `CON1CCC2(CC1)C(O)=C(c1cc(C)c(C)cc1Cl)C(=O)N2C`, the melting point is 191 to 192 °C.

For the compound `CON1CCC2(CC1)C(O)=C(c1cc(Br)c(C)cc1C)C(=O)N2C`, the melting point lay in the range of 182 to 183 °C.

As for `CON1CCC2(CC1)C(O)=C(c1c(C)cc(C)cc1C)C(=O)N2CC1CC1`, the melting point was 223 to 225 °C.

`COCCON1C(=O)C(c2c(C)cc(Cl)cc2C)=C(O)C12CCN(OC)CC2` showed a melting point of 161 to 164 °C.

Compound `CON1CCC2(CC1)C(O)=C(c1c(C)cc(Cl)cc1C)C(=O)N2OC` returned a melting point of 88 to 92 °C.

In turn, `COCON1C(=O)C(c2c(C)cc(Cl)cc2C)=C(O)C12CCN(OC)CC2` returned a melting point of 176 to 178 °C.

`CON1CCC2(CC1)C(O)=C(c1c(C)cc(Cl)cc1C)C(=O)N2OC1CCCO1` (centres unmarked) had a melting point of 137 to 139 °C.

For the compound `COCON1C(=O)C(c2c(C)cc(-c3ccc(Cl)cc3)cc2C)=C(O)C12CCN(OC)CC2`, the melting point was 128 °C (dec.).

`CON1CCC2(CC1)C(O)=C(c1c(C)cc(C)cc1C)C(=O)N2OCCOC1CCCCO1` (centres unmarked): the melting point was in the range of 135 to 137 °C.

The compound `COCON1C(=O)C(c2c(F)ccc(C)c2Cl)=C(O)C12CCN(OC)CC2` showed a melting point of 155 to 158 °C.

The compound `COCCON1C(=O)C(c2cc(Br)c(C)cc2C)=C(O)C12CCN(OC)CC2` had a melting point of 63 to 64 °C.

`CON1CCC2(CC1)C(O)=C(c1cc(Br)c(C)cc1C)C(=O)N2OC` came in with a melting point of 86 to 87 °C.

As to `COCCON1C(=O)C(c2cc(Br)c(F)cc2C)=C(O)C12CCN(OC)CC2`, the melting point was 71 to 74 °C.

Compound `COCON1C(=O)C(c2cc(Br)c(F)cc2C)=C(O)C12CCN(OC)CC2` had a melting point of 64 to 67 °C.

With `CON1CCC2(CC1)C(O)=C(c1c(C)cc(C)cc1C)C(=O)N2OCC1CCCCC1`, the melting point lay in the range of 169 to 172 °C.

In the case of `CCOC(=O)OC1=C(c2c(C)cc(C)cc2C)C(=O)N(C)C12CCN(OC)CC2` [P1.2, Carbonic acid ethyl ester 8-methoxy-1-methyl-2-oxo-3-(2,4,6-trimethyl-phenyl)-1,8-diaza-spiro[4.5]dec-3-en-4-yl ester], the mortality at 12.5 ppm in data set [1] (12.5 ppm AI with Moddus, ratio AI:PGR 0.9:1, 7 d after application, read-out: Efficacy (% mortality) against brown plant hopper (Nilaparvata lugens)) was 5%; in data set [1] (12.5 ppm AI, no PGR, 7 d after application, read-out: Efficacy (% mortality) against brown plant hopper (Nilaparvata lugens)) it was 65%. Also, the mortality at 25 ppm was 10% in data set [1] (25 ppm AI with Moddus, ratio AI:PGR 1.9:1, 7 d after application, read-out: Efficacy (% mortality) against brown plant hopper (Nilaparvata lugens)) and 37% in data set [1] (25 ppm AI, no PGR, 7 d after application, read-out: Efficacy (% mortality) against brown plant hopper (Nilaparvata lugens)). In addition, the mortality at 50 ppm in data set [1] (50 ppm AI with Moddus, ratio AI:PGR 1.25:1, 7 d after application, read-out: Efficacy (% mortality) against brown plant hopper (Nilaparvata lugens)) is 33%; in data set [1] (50 ppm AI, no PGR, 7 d after application, read-out: Efficacy (% mortality) against brown plant hopper (Nilaparvata lugens)), 62%. For the same compound, the mortality at 100 ppm in data set [1] (100 ppm AI with Moddus, ratio AI:PGR 7.5:1, 7 d after application, read-out: Efficacy (% mortality) against brown plant hopper (Nilaparvata lugens)) is 77%; in data set [1] (100 ppm AI, no PGR, 7 d after application, read-out: Efficacy (% mortality) against brown plant hopper (Nilaparvata lugens)), 80%. The mortality at 200 ppm amounted to 87% in data set [1] (200 ppm AI with Moddus, ratio AI:PGR 15:1, 7 d after application, read-out: Efficacy (% mortality) against brown plant hopper (Nilaparvata lugens)) and 90% in data set [1] (200 ppm AI, no PGR, 7 d after application, Abbott, read-out: Efficacy (% mortality) against brown plant hopper (Nilaparvata lugens)). For the same compound, the “Efficacy (% mortality) against cereal aphids (Rhopalosiphum padi), 6 DAA” value in data set [2] (test compound 25 ppm + Mero 0.1% v/v, tank mix with PGR Cycocel, ratio AI:PGR 1:20, 6 DAA) came out at 97%; in data set [2] (test compound 25 ppm + Mero 0.1% v/v, tank mix with PGR Moddus, ratio AI:PGR 1:10, 6 DAA) it was 94%; in data set [2] (test compound 25 ppm + adjuvant Mero 0.1% v/v, no PGR, 6 days after application, Abbott), 97%. Besides, the “Efficacy (% mortality) against cereal aphids (Rhopalosiphum padi), 17 DAA” value in data set [2] (test compound 25 ppm + Mero 0.1% v/v, tank mix with PGR Cycocel, ratio AI:PGR 1:20, 17 DAA) stood at 93%; in data set [2] (test compound 25 ppm + Mero 0.1% v/v, tank mix with PGR Moddus, ratio AI:PGR 1:10, 17 DAA) it was 90%; in data set [2] (test compound 25 ppm + adjuvant Mero 0.1% v/v, no PGR, 17 days after application, Abbott), 70%.

As to `CCOC(=O)OC1=C(c2c(C)cc(Cl)cc2C)C(=O)N(C)C12CCN(OC)CC2` [P1.29], the mortality at 12.5 ppm was determined as 80% in data set [1] (read-out: Efficacy (% mortality) against brown plant hopper (Nilaparvata lugens), 12.5 ppm AI with Moddus, ratio AI:PGR 0.9:1, 7 d after application) and 98% in data set [1] (read-out: Efficacy (% mortality) against brown plant hopper (Nilaparvata lugens), 12.5 ppm AI, no PGR, 7 d after application). The mortality at 25 ppm in data set [1] (read-out: Efficacy (% mortality) against brown plant hopper (Nilaparvata lugens), 25 ppm AI with Moddus, ratio AI:PGR 1.9:1, 7 d after application) worked out at 97%; in data set [1] (read-out: Efficacy (% mortality) against brown plant hopper (Nilaparvata lugens), 25 ppm AI, no PGR, 7 d after application), 98%. The mortality at 50 ppm in data set [1] (read-out: Efficacy (% mortality) against brown plant hopper (Nilaparvata lugens), 50 ppm AI with Moddus, ratio AI:PGR 1.25:1, 7 d after application) came to 98%; in data set [1] (read-out: Efficacy (% mortality) against brown plant hopper (Nilaparvata lugens), 50 ppm AI, no PGR, 7 d after application), 100%. In addition, the mortality at 100 ppm was found to be 100% in data set [1] (read-out: Efficacy (% mortality) against brown plant hopper (Nilaparvata lugens), 100 ppm AI with Moddus, ratio AI:PGR 7.5:1, 7 d after application) and 100% in data set [1] (read-out: Efficacy (% mortality) against brown plant hopper (Nilaparvata lugens), 100 ppm AI, no PGR, 7 d after application). Besides, the mortality at 200 ppm was determined as 100% in data set [1] (read-out: Efficacy (% mortality) against brown plant hopper (Nilaparvata lugens), 200 ppm AI with Moddus, ratio AI:PGR 15:1, 7 d after application) and 100% in data set [1] (read-out: Efficacy (% mortality) against brown plant hopper (Nilaparvata lugens), 200 ppm AI, no PGR, 7 d after application, Abbott).
